One may read the IC50 as the concentration that gives 50% inhibition. What is called EC50 is the concentration giving half of the maximal effect. Usually AC50 stands for the concentration at which the activity in the assay is half-maximal.

This passage reports IC50, EC50 and AC50 results from ChEMBL document CHEMBL1201862, “PubChem BioAssay data set” (2004).

The source made the active and inactive calls.

The target of assay [1] is T1, Mannose-6-phosphate isomerase (Homo sapiens, UniProt P34949).
T1 sequence (P34949 whole entry): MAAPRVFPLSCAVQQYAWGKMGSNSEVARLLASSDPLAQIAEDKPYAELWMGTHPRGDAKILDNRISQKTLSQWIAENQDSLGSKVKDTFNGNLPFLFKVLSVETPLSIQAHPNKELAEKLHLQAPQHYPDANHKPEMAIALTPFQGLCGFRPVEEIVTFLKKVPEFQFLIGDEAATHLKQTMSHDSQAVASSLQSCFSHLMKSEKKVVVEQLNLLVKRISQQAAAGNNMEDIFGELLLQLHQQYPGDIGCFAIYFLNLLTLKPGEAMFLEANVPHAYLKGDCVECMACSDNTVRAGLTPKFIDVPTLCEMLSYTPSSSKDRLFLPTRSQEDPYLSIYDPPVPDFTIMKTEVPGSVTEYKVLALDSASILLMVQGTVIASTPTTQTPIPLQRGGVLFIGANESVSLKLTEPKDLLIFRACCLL
Briefly: MPI inhibition at elevated mannose 6-phosphate – biochemical, fluorescence intensity, high mannose 6-phosphate, primary screen (AID 1220).

Assay [2] has as its target T2, Caspase-3 (Homo sapiens, UniProt P42574).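 Further: Dose-response selectivity test against caspase-3 for candidate inhibitors of sentrin-specific proteases (SENPs).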
T2 sequence (P42574 whole entry): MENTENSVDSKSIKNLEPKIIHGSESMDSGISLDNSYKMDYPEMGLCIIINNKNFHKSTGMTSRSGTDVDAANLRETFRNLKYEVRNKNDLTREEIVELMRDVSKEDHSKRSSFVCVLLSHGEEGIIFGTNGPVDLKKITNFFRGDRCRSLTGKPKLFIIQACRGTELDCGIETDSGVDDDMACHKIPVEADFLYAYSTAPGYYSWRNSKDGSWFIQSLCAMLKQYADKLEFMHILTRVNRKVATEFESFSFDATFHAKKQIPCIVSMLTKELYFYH
Type of assay: functional.

Assay [3] concerns the target T3, Sentrin-specific protease 6 (Homo sapiens, UniProt Q9GZR1).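 Further: Luminescence-based dose-response confirmatory assay of SENP6 inhibition, following up an ultra-high-throughput screen.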
T3 sequence (Q9GZR1 whole entry): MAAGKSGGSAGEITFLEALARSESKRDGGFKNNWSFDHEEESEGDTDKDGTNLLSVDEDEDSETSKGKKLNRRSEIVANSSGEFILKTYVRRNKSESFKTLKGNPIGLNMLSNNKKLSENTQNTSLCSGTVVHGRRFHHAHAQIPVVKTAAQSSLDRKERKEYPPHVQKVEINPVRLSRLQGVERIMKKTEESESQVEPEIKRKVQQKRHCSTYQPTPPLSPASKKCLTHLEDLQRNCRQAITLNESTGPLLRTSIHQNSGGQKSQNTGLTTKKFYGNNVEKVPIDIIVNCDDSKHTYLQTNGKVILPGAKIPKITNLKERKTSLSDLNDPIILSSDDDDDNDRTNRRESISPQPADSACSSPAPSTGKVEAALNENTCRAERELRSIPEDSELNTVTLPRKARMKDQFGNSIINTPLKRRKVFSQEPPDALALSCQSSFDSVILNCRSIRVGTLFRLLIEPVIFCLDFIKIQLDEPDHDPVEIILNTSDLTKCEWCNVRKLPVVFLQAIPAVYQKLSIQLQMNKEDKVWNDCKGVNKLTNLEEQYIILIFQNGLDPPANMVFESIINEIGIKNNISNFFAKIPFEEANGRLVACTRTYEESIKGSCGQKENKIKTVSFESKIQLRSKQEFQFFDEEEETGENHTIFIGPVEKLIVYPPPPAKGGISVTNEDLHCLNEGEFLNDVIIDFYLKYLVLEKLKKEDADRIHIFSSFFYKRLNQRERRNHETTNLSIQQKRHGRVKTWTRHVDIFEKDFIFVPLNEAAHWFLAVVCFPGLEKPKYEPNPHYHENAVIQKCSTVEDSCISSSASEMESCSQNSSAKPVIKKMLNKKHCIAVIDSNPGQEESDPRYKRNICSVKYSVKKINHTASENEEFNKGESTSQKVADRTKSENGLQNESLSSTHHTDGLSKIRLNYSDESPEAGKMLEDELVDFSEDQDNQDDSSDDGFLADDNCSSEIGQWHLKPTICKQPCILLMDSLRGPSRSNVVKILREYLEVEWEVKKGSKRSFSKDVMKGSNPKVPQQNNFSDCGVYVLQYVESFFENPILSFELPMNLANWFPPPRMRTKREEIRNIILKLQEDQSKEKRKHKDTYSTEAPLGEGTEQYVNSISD
Type of assay: functional.

For assay [4], the target named is T4, Sentrin-specific protease 7 (Homo sapiens, UniProt Q9BQF6).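 Further: Luminescence-based dose-response confirmation of ultra-high-throughput screening hits, measuring inhibition of SENP7.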
T4 sequence (Q9BQF6 whole entry): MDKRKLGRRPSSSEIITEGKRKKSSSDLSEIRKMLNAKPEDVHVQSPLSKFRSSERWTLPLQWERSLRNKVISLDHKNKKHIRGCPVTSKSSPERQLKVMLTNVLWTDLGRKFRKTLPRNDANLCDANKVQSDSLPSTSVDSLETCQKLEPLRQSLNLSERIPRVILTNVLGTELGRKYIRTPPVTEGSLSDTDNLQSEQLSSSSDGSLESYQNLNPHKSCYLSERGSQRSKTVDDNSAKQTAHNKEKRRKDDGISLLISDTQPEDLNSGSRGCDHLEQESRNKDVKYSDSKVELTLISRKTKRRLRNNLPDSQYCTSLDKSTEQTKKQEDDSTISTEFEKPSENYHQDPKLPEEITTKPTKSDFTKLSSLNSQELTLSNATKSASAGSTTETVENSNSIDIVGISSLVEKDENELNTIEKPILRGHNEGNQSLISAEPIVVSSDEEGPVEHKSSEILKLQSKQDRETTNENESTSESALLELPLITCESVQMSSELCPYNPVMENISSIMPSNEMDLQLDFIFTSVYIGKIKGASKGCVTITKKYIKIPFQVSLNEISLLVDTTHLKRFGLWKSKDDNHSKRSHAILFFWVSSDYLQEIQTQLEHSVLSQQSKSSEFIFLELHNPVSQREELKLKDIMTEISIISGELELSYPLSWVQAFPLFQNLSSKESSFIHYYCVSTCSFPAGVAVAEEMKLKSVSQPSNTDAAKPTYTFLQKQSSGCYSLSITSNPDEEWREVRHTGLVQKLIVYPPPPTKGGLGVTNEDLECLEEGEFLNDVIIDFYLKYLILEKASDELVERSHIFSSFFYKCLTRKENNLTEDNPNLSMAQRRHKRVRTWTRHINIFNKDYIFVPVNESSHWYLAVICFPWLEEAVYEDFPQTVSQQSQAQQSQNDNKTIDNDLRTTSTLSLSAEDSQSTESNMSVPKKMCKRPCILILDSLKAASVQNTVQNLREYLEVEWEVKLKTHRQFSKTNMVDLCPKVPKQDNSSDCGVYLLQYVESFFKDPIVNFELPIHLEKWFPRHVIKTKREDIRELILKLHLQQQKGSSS
Type of assay: functional.

Assay [5] has as its target T5, Sentrin-specific protease 8 (Homo sapiens, UniProt Q96LD8).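 Further: luminescence read-out of SENP8 inhibition, dose-response confirmation following an ultra-high-throughput screen.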
T5 sequence (Q96LD8 whole entry): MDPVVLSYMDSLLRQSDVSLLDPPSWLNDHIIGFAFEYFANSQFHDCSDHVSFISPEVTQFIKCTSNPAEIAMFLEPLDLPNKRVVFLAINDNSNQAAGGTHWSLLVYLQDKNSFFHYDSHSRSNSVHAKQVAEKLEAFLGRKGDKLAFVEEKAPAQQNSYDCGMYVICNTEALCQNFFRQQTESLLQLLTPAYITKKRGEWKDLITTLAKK
The format is functional.

Assay [6] deals with T6, Heat shock factor protein 1 (Mus musculus, UniProt P38532).
T6 sequence (P38532 whole entry): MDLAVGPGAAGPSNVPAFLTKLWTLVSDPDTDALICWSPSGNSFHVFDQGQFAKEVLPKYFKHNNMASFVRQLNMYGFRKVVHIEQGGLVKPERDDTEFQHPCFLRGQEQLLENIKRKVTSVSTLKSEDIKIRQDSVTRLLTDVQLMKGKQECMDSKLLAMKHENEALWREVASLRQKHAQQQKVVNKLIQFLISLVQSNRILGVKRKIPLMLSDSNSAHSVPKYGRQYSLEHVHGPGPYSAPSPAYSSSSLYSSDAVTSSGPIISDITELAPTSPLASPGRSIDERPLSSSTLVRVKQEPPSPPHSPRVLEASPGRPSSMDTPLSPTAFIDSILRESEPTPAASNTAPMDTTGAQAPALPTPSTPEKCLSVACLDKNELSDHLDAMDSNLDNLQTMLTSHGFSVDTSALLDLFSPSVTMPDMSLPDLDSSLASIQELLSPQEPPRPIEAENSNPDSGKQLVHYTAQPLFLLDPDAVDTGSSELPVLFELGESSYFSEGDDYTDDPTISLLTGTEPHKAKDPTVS
The experiment in a line: enhancement of HSF1-driven luciferase signal – cell-based, NIH3T3, luminescence, dose retest, confirmation (AID 435004).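 Further: stress induced by proteasome inhibitor MG132 added 30 min after compound; luciferase reporter driven by HSF1 response element in NIH3T3 cells; actives raise luminescence as potentiators of the MG132 stress response.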 Type of assay: functional.

Assay [7] can be described thus: blockers of bursicon-stimulated LGR2 cAMP reporter – cell-based, HEK293, CRE-luciferase reporter, cherry pick, set 2, dose response (AID 743343).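 Further: transfected cells were stimulated with diluted bursicon conditioned medium after compound addition.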 The format is functional. In general terms: In a reporter assay the amount or activity of a reporter protein is the signal.
Assay [8] relates to H9c2. Briefly: cells. The format is functional, cell-based. To be noted: Rattus norvegicus, H9c2, Myocardium.
Assay [9] is described as follows: blockade of melanocortin 4 receptor signaling – cell-based, plate reader, cherry pick, counter-screen for LGR2 antagonist project, dose response (AID 743444).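 Further: transfected HEK 293 cells stimulated with alpha-MSH peptide; potency of inhibitors of the alpha-MSH evoked signal.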 Type of assay: functional.
The target in assay [10] is T7, Replicative DNA helicase DnaB (Mycobacterium tuberculosis, UniProt P9WMR3).
T7 sequence (P9WMR3 whole entry): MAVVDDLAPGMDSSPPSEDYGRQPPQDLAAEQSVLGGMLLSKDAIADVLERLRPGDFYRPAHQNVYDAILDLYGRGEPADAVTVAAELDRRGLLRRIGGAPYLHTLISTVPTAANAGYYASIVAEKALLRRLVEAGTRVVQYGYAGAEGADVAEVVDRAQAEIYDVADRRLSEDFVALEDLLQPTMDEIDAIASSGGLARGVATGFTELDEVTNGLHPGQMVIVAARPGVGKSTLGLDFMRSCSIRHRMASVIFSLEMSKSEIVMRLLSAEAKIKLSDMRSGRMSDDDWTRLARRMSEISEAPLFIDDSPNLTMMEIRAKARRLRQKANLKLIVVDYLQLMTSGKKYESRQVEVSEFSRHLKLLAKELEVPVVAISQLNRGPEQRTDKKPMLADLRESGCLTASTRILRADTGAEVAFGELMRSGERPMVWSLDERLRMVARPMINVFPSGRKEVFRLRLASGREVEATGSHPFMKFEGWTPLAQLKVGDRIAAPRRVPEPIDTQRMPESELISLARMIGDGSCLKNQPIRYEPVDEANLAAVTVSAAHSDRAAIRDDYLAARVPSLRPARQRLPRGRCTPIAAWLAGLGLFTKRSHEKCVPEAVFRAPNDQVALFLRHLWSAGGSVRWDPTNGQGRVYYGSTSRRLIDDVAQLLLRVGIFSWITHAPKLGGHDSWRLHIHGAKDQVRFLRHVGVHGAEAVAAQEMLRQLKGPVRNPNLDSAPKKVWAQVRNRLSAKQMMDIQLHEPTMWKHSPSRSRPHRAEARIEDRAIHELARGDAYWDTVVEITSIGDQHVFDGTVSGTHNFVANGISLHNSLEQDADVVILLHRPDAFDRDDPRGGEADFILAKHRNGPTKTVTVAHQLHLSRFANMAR
Briefly: DnaB intein splicing inhibitors, dose response, biochemical, cell-free fluorescence (AID 449749). Type of assay: functional.

The target in assay [11] is T8, Protein RecA (Mycobacterium tuberculosis, UniProt P9WHJ3).
T8 sequence (P9WHJ3 whole entry): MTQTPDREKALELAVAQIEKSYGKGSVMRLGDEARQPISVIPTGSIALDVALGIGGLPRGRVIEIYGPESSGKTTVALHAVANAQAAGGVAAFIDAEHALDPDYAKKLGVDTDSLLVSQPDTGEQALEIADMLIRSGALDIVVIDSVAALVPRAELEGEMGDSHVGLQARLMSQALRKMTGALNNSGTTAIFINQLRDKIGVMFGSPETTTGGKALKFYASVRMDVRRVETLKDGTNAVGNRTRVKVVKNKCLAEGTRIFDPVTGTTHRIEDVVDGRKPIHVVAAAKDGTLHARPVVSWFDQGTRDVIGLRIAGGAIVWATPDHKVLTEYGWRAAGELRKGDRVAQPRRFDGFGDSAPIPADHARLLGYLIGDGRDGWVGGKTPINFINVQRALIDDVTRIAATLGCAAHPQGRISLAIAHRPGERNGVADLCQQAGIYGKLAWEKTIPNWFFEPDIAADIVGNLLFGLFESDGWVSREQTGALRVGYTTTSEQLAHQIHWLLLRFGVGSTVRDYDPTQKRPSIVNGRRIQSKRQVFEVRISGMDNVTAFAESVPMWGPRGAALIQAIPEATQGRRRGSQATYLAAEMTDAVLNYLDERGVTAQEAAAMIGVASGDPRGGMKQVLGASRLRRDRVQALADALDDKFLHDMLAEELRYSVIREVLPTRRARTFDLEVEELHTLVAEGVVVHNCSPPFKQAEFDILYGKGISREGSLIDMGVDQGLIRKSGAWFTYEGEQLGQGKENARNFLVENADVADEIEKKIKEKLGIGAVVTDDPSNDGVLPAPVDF
Briefly: Fluorescence Cell-Free Homogeneous Dose Retest to Identify Inhibitors of RecA-Intein Splicing Activity. [Related pubchem assays (depositor defined):AID2097, AID2223, AID489010, AID492950]. Type of assay: functional.

On to `Cc1ccc(S(=O)(=O)N(C)C)cc1NC(S)=Nc1ccc2c[nH]nc2c1`, for which the IC50 in assay [1] is > 50 µM (not active).

Regarding `CCOc1ccc(-n2nc3cc(C)c(N)cc3n2)cc1`, the IC50 is 7.93 µM (active) in assay [2], 6.21 µM (active) in assay [3], 2.94 µM (active) in assay [4] and 59.3 µM (active) in assay [5].

`NC(=O)c1ccccc1OCC(=O)Nc1ccc(Cl)c(Cl)c1`: the IC50 in assay [2] was 37.8 µM (active); in [3] it was > 100 µM (inactive); in assay [4], 10.4 µM (active); in assay [5] it was > 100 µM (inactive). The EC50 in [6] is > 260 µM (inconclusive).

`O=C(O)c1cccc(NC(=O)c2cccc(S(=O)(=O)N3CCc4ccccc43)c2)c1`: the IC50 was 90.5 µM (active) in [2], 23.7 µM (active) in assay [3], 9.85 µM (active) in assay [4] and 24.4 µM (active) in assay [5].

Take `COc1cc(NC(=O)c2cccc3c(-c4cnn(C)c4)coc23)cc(OC)c1OC`: the AC50 is 24.3 µM (active) in assay [7] and 17.9 µM (active) in [9]. In assay [8], the IC50 is > 79 µM (inactive).

Take `Cc1ccc(C(=O)N/N=C/c2ccc(-c3ccccc3[N+](=O)[O-])o2)cn1`: the AC50 in [10] was 30.6 µM (active). For the same compound, the IC50 in assay [1] is recorded as > 50 µM (not active). For the same compound, in assay [11], the EC50 is 13.5 µM (active).
